Read-outs that look alike come from different tables or passages of the source.
Assays:
hPAD4 = hPAD4 (Homo sapiens, UniProt Q9UM07); experiment: hPAD4 RFMS (RapidFire mass spectrometry) PAD4 inhibition assay; assay type: biochemical; settings: hPAD4 enzyme, RFMS readout;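 on hPAD4 RFMS pIC50: grade E means pIC50 at most 4 and F means pIC50 4.0 to 5.0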
Experimental: (§1) Compounds of the present invention were assayed as inhibitors of PAD4 using the assay protocol described below.
(§2) Compound stock solutions were stored at RT. […] Final assay conditions were as follows:
(§3) Total incubation time: 65 mins at 37° C.
(§4) Stop solution: 40 μl 5% TCA in ACN
(§5) The compound numbers correspond to the compound numbers in Table 1. […] The term pIC50=−log(IC50). […] “NA” stands for “not assayed.”

mPAD4 = mPAD4 (Mus musculus, UniProt Q9Z183); experiment: mPAD4 RFMS PAD4 inhibition assay; assay type: biochemical; settings: mPAD4, RFMS readout;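 on mPAD4 RFMS pIC50: grade E means pIC50 at most 4 and F means pIC50 4.0 to 5.0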
Chain of mPAD4 (Q9Z183 whole entry): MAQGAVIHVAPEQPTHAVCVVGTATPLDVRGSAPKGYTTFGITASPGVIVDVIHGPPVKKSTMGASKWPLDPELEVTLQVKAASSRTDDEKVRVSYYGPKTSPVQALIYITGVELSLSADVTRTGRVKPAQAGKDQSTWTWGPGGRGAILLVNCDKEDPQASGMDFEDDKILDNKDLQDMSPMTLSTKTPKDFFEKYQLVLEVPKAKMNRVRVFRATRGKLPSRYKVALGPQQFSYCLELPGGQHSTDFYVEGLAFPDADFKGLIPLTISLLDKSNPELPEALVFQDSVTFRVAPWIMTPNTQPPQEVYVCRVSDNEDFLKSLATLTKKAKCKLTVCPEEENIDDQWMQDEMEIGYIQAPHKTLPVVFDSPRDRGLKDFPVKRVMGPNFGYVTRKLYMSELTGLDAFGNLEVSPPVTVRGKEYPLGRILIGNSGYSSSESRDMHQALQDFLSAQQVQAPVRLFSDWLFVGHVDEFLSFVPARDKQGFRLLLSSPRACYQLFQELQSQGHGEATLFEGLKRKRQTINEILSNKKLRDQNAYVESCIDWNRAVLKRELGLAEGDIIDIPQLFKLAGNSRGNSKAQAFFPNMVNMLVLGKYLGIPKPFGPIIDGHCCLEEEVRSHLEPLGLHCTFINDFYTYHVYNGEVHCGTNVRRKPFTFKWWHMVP
Experimental: as §1, §2, §3, §4, §5

[1] = pIC50=−log(IC50), read-out: hPAD4 RFMS pIC50 (converted)
[2] = pIC50=−log(IC50), read-out: mPAD4 RFMS pIC50 (converted)

Chain of hPAD4 (Q9UM07 whole entry): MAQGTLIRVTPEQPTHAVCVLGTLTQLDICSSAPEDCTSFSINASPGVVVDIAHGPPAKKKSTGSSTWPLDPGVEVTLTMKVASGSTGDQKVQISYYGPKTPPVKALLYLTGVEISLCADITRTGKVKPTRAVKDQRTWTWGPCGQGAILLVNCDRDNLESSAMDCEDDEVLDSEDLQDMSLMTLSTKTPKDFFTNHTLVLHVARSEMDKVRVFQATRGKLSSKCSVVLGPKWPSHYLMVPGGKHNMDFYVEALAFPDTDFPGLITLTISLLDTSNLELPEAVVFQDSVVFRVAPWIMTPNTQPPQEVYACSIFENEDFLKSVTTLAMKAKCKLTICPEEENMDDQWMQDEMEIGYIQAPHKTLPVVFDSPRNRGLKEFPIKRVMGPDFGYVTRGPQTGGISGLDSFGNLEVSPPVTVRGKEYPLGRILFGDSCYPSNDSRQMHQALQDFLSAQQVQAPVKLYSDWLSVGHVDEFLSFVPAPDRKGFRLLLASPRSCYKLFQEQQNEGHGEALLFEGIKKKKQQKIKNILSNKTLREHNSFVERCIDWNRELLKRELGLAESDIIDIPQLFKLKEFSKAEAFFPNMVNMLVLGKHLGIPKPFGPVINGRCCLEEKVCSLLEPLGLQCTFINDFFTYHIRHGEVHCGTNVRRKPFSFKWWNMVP

**Q.** Which IC50 (hPAD4; [1]) does the source give for CCn1c(-c2nc3cc(C(=O)N4C[C@H]5CC[C@@H]4[C@@H]5N)cc(OC)c3n2C)cc2ccc(OC)nc21 [Compound I-139] here?
**A.** Its IC50 is less than 1000 nM.

**Q.** And the IC50 (hPAD4; read-out: hPAD4 RFMS IC50)?
**A.** Its IC50 is less than 1000 nM.

**Q.** What about the IC50 (mPAD4; [2]) of the same compound?
**A.** The IC50 was less than 1000 nM.

**Q.** What about the IC50 (mPAD4; read-out: mPAD4 RFMS IC50) of the same compound?
**A.** Its IC50 is less than 1000 nM.

**Q.** Which IC50 (hPAD4; [1]) does the source give for CCn1c(-c2nc3cc(C(=O)N4C[C@@H]5CC[C@H]4[C@H]5N)cc(OC)c3n2C)cc2ccc(OC)nc21 [Compound I-140] here?
**A.** The IC50 was 1000 to 10000 nM.

**Q.** What about the IC50 (hPAD4; read-out: hPAD4 RFMS IC50) of the same compound?
**A.** The IC50 was 5000 to 10000 nM.

**Q.** And the IC50 (mPAD4; [2])?
**A.** The IC50 was 10000 to 100000 nM.

**Q.** And the IC50 (mPAD4; read-out: mPAD4 RFMS IC50)?
**A.** The IC50 was greater than 10000 nM.

**Q.** For COc1cc(C(=O)N2CC[C@H](OC)[C@H](N)C2)cc2nc(-c3cc4cccnc4n3CC3CC3)n(C)c12 [Compound I-142], which IC50 (hPAD4; [1]) is on record?
**A.** The IC50 was 1000 to 10000 nM.

**Q.** What about the IC50 (hPAD4; read-out: hPAD4 RFMS IC50) of the same compound?
**A.** The IC50 was 1000 to 5000 nM.

**Q.** What about the IC50 (mPAD4; [2]) of the same compound?
**A.** The IC50 was 1000 to 10000 nM.

**Q.** And the IC50 (mPAD4; read-out: mPAD4 RFMS IC50)?
**A.** The IC50 was 1000 to 5000 nM.

**Q.** Which results are given for COc1cc(C(=O)N2CCC[C@@H](N)C2)cc2nc(-c3cc4cccnc4n3CCF)n(C)c12 [Compound I-146]?
**A.** IC50 (hPAD4; [1]): 1000 to 10000 nM; IC50 (hPAD4; read-out: hPAD4 RFMS IC50): 1000 to 5000 nM; IC50 (mPAD4; [2]): < 1000 nM; IC50 (mPAD4; read-out: mPAD4 RFMS IC50): < 1000 nM

**Q.** Which results are given for CCCn1c(-c2nc3cc(C(=O)N4CCC[C@@H](N)C4)cc(OC)c3n2C)cc2cccnc21 [Compound I-149]?
**A.** IC50 (hPAD4; [1]): < 1000 nM; IC50 (hPAD4; read-out: hPAD4 RFMS IC50): < 1000 nM; IC50 (mPAD4; [2]): < 1000 nM; IC50 (mPAD4; read-out: mPAD4 RFMS IC50): < 1000 nM

**Q.** Which results are given for CCn1c(-c2nc3cc(C(=O)N4CCC[C@@H](N)C4)cc(F)c3n2CC)cc2cccnc21 [Compound I-151]?
**A.** IC50 (hPAD4; [1]): 1000 to 10000 nM; IC50 (hPAD4; read-out: hPAD4 RFMS IC50): 1000 to 5000 nM; IC50 (mPAD4; [2]): 1000 to 10000 nM; IC50 (mPAD4; read-out: mPAD4 RFMS IC50): 5000 to 10000 nM

**Q.** What does the source list for CCn1c(-c2nc3cc(C(=O)N4C[C@H]5CC[C@@H]4[C@@H]5N)ccc3n2C)cc2cccnc21 [Compound I-152]?
**A.** IC50 (hPAD4; [1]): 1000 to 10000 nM; IC50 (hPAD4; read-out: hPAD4 RFMS IC50): 1000 to 5000 nM; IC50 (mPAD4; [2]): 1000 to 10000 nM; IC50 (mPAD4; read-out: mPAD4 RFMS IC50): 5000 to 10000 nM

**Q.** Which IC50 (hPAD4; [1]) does the source give for CCCn1c(-c2nc3cc(C(=O)N4C[C@H]5CC[C@@H]4[C@@H]5N)cc(OC)c3n2C)cc2cccnc21 [Compound I-154] here?
**A.** Its IC50 is less than 1000 nM.

**Q.** And the IC50 (hPAD4; read-out: hPAD4 RFMS IC50)?
**A.** The IC50 was less than 1000 nM.

**Q.** What about the IC50 (mPAD4; [2]) of the same compound?
**A.** The IC50 was less than 1000 nM.

**Q.** What about the IC50 (mPAD4; read-out: mPAD4 RFMS IC50) of the same compound?
**A.** The IC50 was less than 1000 nM.

**Q.** How did the IC50 (hPAD4; [1]) turn out when CCn1c(-c2nc3cc(C(=O)N4C[C@H]5CC[C@@H]4[C@@H]5N)cc(OC)c3n2C[C@H]2C[C@@](C)(O)C2)cc2cccnc21 [Compound I-155] was run?
**A.** Its IC50 is less than 1000 nM.

**Q.** And the IC50 (hPAD4; read-out: hPAD4 RFMS IC50)?
**A.** The IC50 was less than 1000 nM.

**Q.** What about the IC50 (mPAD4; [2]) of the same compound?
**A.** Its IC50 is less than 1000 nM.

**Q.** And the IC50 (mPAD4; read-out: mPAD4 RFMS IC50)?
**A.** The IC50 was less than 1000 nM.

**Q.** What does the source list for COc1cc(C(=O)N2C[C@H]3CC[C@@H]2[C@@H]3N)cc2nc(-c3cc4cccnc4n3CCF)n(C)c12 [Compound I-157]?
**A.** IC50 (hPAD4; [1]): 1000 to 10000 nM; IC50 (hPAD4; read-out: hPAD4 RFMS IC50): 1000 to 5000 nM; IC50 (mPAD4; [2]): 1000 to 10000 nM; IC50 (mPAD4; read-out: mPAD4 RFMS IC50): 1000 to 5000 nM

**Q.** For CCn1c(-c2nc3cc(C(=O)N4C[C@H]5CC[C@@H]4[C@@H]5N)cc(OC)c3n2C)cc2cccnc21 [Compound I-159], which IC50 (hPAD4; [1]) is on record?
**A.** Its IC50 is less than 1000 nM.

**Q.** What about the IC50 (hPAD4; read-out: hPAD4 RFMS IC50) of the same compound?
**A.** Its IC50 is less than 1000 nM.

**Q.** And the IC50 (mPAD4; [2])?
**A.** The IC50 was less than 1000 nM.

**Q.** What about the IC50 (mPAD4; read-out: mPAD4 RFMS IC50) of the same compound?
**A.** Its IC50 is less than 1000 nM.

**Q.** For CCn1c(-c2nc3cc(C(=O)N4C[C@H]5CC[C@@H]4[C@@H]5N)cc(OC)c3n2C)cc2ccc(C)nc21 [Compound I-160], which IC50 (hPAD4; [1]) is on record?
**A.** The IC50 was less than 1000 nM.

**Q.** And the IC50 (hPAD4; read-out: hPAD4 RFMS IC50)?
**A.** The IC50 was less than 1000 nM.

**Q.** And the IC50 (mPAD4; [2])?
**A.** The IC50 was less than 1000 nM.

**Q.** What about the IC50 (mPAD4; read-out: mPAD4 RFMS IC50) of the same compound?
**A.** The IC50 was less than 1000 nM.

**Q.** Which results are given for CCn1c(-c2nc3cc(C(=O)N4CCC[C@@H](N)C4)cc(OC)c3n2C)cc2ccc(C)nc21 [Compound I-161]?
**A.** IC50 (hPAD4; [1]): < 1000 nM; IC50 (hPAD4; read-out: hPAD4 RFMS IC50): < 1000 nM; IC50 (mPAD4; [2]): < 1000 nM; IC50 (mPAD4; read-out: mPAD4 RFMS IC50): < 1000 nM

**Q.** For COc1cc(C(=O)N2C[C@H]3C[C@H](O)[C@@H]2[C@@H]3N)cc2nc(-c3cc4cccnc4n3CC3CC3)n(C)c12 [Compound I-162, (1S,4R,6S,7R)-7-Amino-2-{2-[1-(cyclopropylmethyl)-1H-pyrrolo[2,3-b]pyridin-2-yl]-7-methoxy-1-methyl-1H-1,3-benzodiazole-5-carbonyl}-2-azabicyclo[2.2.1]heptan-6-ol], which IC50 (hPAD4; [1]) is on record?
**A.** Its IC50 is less than 1000 nM.

**Q.** What about the IC50 (hPAD4; read-out: hPAD4 RFMS IC50) of the same compound?
**A.** The IC50 was less than 1000 nM.

**Q.** What about the IC50 (mPAD4; [2]) of the same compound?
**A.** Its IC50 is 1000 to 10000 nM.

**Q.** What about the IC50 (mPAD4; read-out: mPAD4 RFMS IC50) of the same compound?
**A.** The IC50 was 1000 to 5000 nM.

**Q.** CCn1c(-c2nc3cc(C(=O)N4CCC[C@@H](N)C4)cc(OC)c3n2C[C@H]2C[C@@](C)(OC)C2)cc2cccnc21 [Compound I-163] was tested. Which IC50 (hPAD4; [1]) did it give?
**A.** The IC50 was 1000 to 10000 nM.

**Q.** What about the IC50 (hPAD4; read-out: hPAD4 RFMS IC50) of the same compound?
**A.** Its IC50 is 1000 to 5000 nM.

**Q.** And the IC50 (mPAD4; [2])?
**A.** Its IC50 is less than 1000 nM.

**Q.** What about the IC50 (mPAD4; read-out: mPAD4 RFMS IC50) of the same compound?
**A.** The IC50 was less than 1000 nM.

Reference: patent publication US9963448B2, “Bicyclic inhibitors of PAD4” (Padlock Therapeutics, Inc., priority 2015, dated 2018)
